These results are taken from patent US20220127584A1, “Reactive persulfides mediate sulfur respiration in mitochondria via sulfide:quinone oxidoreductase” (Bio-Xcelerator, Inc., priority 2020, published 2022).

For one series, the system named is WT and Sqrdl^ΔN/ΔN MEFs. Description: MEF mitochondrial membrane potential (JC-1 staining). The series is classed as cell-based, mouse. Here is the method:
To determine the membrane potential of mitochondria under several experimental conditions, JC-1 staining was performed according to the method previously reported ^37,38. Accumulation of the cell-permeable JC-1 probe (Abcam) in mitochondria depends on the membrane potential and is associated with a fluorescence emission shift from green (emission 527 nm) to red (emission 590 nm). Briefly, WT and Sqrdl^ΔN/ΔN MEFs, cultured in 8-well multichamber slides (Matsunami, Osaka, Japan) coated with collagen, were treated with mitochondrial ETC inhibitors (rotenone, atpenin A5, and antimycin A) the and ADP/ATP carrier inhibitor CATR^23 as described in the figure legends. For JC-1 staining, cultured cells were washed with HKRB buffer (20 mM HEPES, 103 mM NaCl, 4.77 mM KCl, 0.5 mM CaCl2, 1.2 mM MgCl2, 1.2 mM KH2PO4, 25 mM NaHCO3, and 15 mM glucose, pH 7.3), incubated with 20 μM JC-1 at 37° C. for 20 min, rinsed twice with HKRB buffer, and examined with a confocal laser scanning microscope (Nikon C2 plus, with NIS-Elements 5.01 software). ImageJ software was used for image processing and calculation of JC-1 fluorescence intensities.

The subject of series [1] is fission yeast (Schizosaccharomyces pombe). In kind it is cell-based. Particulars: SQR-deficient yeast (Δhmt2) compared with WT yeast; increasing/high concentrations.
Series [2] concerns isolated mitochondria from WT and Sqrdl^ΔN/ΔN MEFs. Put plainly: Quantification of sulfur metabolites in isolated mitochondria (LC-ESI-MS/MS). Particulars: addition to isolated mitochondria. More on the design: species or system mouse. Here is the method:
Yeast, mouse tissues, and MEFs were analyzed for the low-molecular-weight analytes cysteine (CysSH), cysteine hydropersulfide (CysSSH), glutathione (GSH), glutathione hydropersulfide (GSSH), bis-S (H2S), bis-SS (HSSH), cystine (CysSSCys), oxidized glutathione, or glutathione disulfide (GSSG), oxidized glutathione trisulfide (GSSSG), and thiosulfate (HS2O3^−) as previously described^9. Briefly, samples were homogenized with a Psychotron homogenizer (Microtec Co. Ltd.) or sonicator in ice-cold methanol in the presence of 5 mM β-(4-hydroxyphenyl)ethyl iodoacetamide (HPE-IAM). Homogenates were incubated at 37° C. for 20 min and then centrifuged at 15,000 rpm at 4° C. for 10 min. Supernatants were separated and diluted 10 times with 0.1% formic acid. Stable isotope-labeled internal standards dissolved in 0.1% formic acid solution were added to the samples to a final concentration of 25 nM. A sample of 10 μl was injected into the LC-ESI-MS/MS instrument (LCMS-8060). Various persulfide derivatives were identified and quantified by means of MRM, as previously described^9. Cell pellets were reconstituted in 0.1% SDS in PBS buffer, homogenized by sonication, and centrifuged again at 15,000 rpm at 4° C. for 10 min. […] Each analyte concentration was normalized to the measured protein concentration. […]

In series [3] the test system is mitochondria from WT and Sqrdl^ΔN/ΔN MEFs. Description: Membrane potential of isolated mitochondria (TMRE time-lapse imaging). Particulars: for membrane potential of isolated mitochondria: supplementation to isolated MEF mitochondria. More on the design: species or system mouse. The method, then: MEF mitochondria were isolated by differential centrifugation. WT and Sqrdl^ΔN/ΔN MEFs were homogenized in the extraction buffer (10 mM Tris-HCl, 250 mM sucrose, and 0.5 mM EGTA, pH 7.4) with a Dounce homogenizer (Teflon glass) and were centrifuged at 2,000 g at 4° C. for 5 min to remove nuclei and cell debris. The supernatants were centrifuged at 12,000 g at 4° C. for 10 min, and mitochondrial pellets were washed three times with buffer and kept at −80° C. until use.
To determine the membrane potential in isolated mitochondria under several experimental conditions, TMRE staining was performed according to the method previously reported^40. The TMRE fluorescence intensity at a maximum emission of 574 nm depends on the mitochondrial membrane potential. Briefly, mitochondria from WT and Sqrdl^ΔN/ΔN MEFs were adsorbed on the bottom of 8-well μ-Slides (Ibidi, Martinsreid, Germany) coated with poly-D-lysine (Sigma-Aldrich, St. Luis, Mo., USA), after which they were stained with 10 nM TMRE (Biotium, Fremont, Calif., USA) and 50 nM MitoTracker Green FM (Thermo Fisher Scientific, Waltham, Mass., USA) at 25° C. for 10 min. TMRE fluorescence intensity (561 nm excitation and 605±15 nm emission), which is positive with MitoTracker Green FM fluorescence, was measured in individual mitochondria by using the region of interest (ROI) tool of the confocal laser scanning microscope (Nikon C2 plus, with NIS elements version 5.01 software). […] Specifically, of 200 ROIs, the top 30 ROIs were selected for analysis of TMRE fluorescence intensity in response to TMPD/ascorbate, and their means and s.d. values were calculated.

The test system of series [4] is fission yeast (Schizosaccharomyces pombe). Put plainly: Chronological life span of yeast. In kind it is cell-based. The method, then: Three single colonies derived from each strain were analyzed, as previously described^31 with slight modification. Yeast cells were cultured in SC medium (at a starting OD600 of 0.1) at 30° C. with shaking. Measurement of cell viability began after 72 h of culture (day 0) and continued every 2-3 days by plating a fraction of the culture onto a fresh YPD plate (2% glucose, 0.5% yeast extract, 1% peptone, and 2% agar) to determine the number of colony-forming units (CFUs). […] Cell survival rates were calculated by normalizing the CFUs at each time point to the CFUs at day 0.

The subject of series [5] is mitochondria isolated from livers of WT and Sqrdl^ΔN/ΔN mice. Put plainly: Oxygen consumption of liver mitochondria (Clark-type electrode). Set-up: species or system mouse. Particulars: 10-μM NaHS supply. Here is the method:
Mitochondria were isolated from 4- to 6-week-old mice by using two-step differential centrifugations, as previously described^41 with minor modifications. In brief, after gallbladder removal, fresh liver specimens weighing 1.0-1.5 g were minced and homogenized in ice-cold isolation buffer (10 mM Tris/MOPS, 1 mM EGTA/Tris, and 200 mM sucrose, pH 7.4). When liver weight was less than 1 g, livers were pooled. Homogenate were centrifuged at 600 g and 4° C. for 10 min to remove cellular debris and nuclei. Supernatants containing mitochondrial fraction were then centrifuged at 7,000 g at 4° C. for 10 min. Obtained mitochondrial pellets were washed with new isolation buffer and underwent centrifugation again (7,000 g for 10 min). […] The protein concentration was determined with the BCA Protein Assay Kit (Thermo Fisher Scientific). Absorbance at 562 nm was measured with NanoDrop 2000 (Thermo Fisher Scientific).
Mitochondrial oxygen consumption was measured by using a Clark-type electrode (Oxytherm system; Hansatech Instruments, Norfolk, UK). […] The OCR through complex I was measured as a mitochondrial basic function by sequentially adding 2.5 mM malate/5 mM glutamate, 150 μM ADP, and 100 nM carbonyl cyanide 4-(trifluoromethoxy) phenylhydrazone (FCCP). The respiratory control index (RCI) was calculated by using the ratio of state 3 to state 4. […]

Setting [6] is: WT MEFs, increasing concentrations in the culture media, SQR-dependent.

Consider `C=C1[C@@H]2CC[C@H]3[C@]4(C)C[C@H](O[C@@H]5O[C@H](CO)[C@@H](OS(=O)(=O)O)[C@H](OS(=O)(=O)O)[C@H]5OC(=O)CC(C)C)CC(C(=O)O)(C(=O)O)[C@H]4CC[C@]3(C2)[C@H]1O` [CATR, carboxyatractyloside], for which the mitochondrial membrane potential entry is “did not observe this increase” with WT and Sqrdl^ΔN/ΔN MEFs (Sqrdl^ΔN/ΔN MEFs, CATR treatment); “increased the membrane potential” in the series with WT and Sqrdl^ΔN/ΔN MEFs (WT MEFs, CATR treatment).
In the case of `[Cl][Cd][Cl]` [Cd, CdCl2], in series [1], the “susceptibility of yeast growth to the substance” value is listed as “enhanced susceptibility to Cd toxicity”.
Turning to `N[C@@H](CCC(=O)N[C@@H](CSSSC[C@H](NC(=O)CC[C@H](N)C(=O)O)C(=O)NCC(=O)O)C(=O)NCC(=O)O)C(=O)O` [GSSSG, glutathione trisulfide], in series [2], the “levels of glutathione hydropersulfide (GSSH)” value is “increased levels of glutathione hydropersulfide (GSSH)”. In addition, the “membrane potential of isolated mitochondria” value in series [3] is on record as “increased the membrane potential”.
In the case of `[Na+].[Na+].[S-][S-]` [Na2S2, sodium disulfide], the “membrane potential of isolated mitochondria” value in series [3] is “results that were quite similar to those induced by NaHS”. Also, in the series on WT and Sqrdl^ΔN/ΔN MEFs (setting [6]), the mitochondrial membrane potential result is “elevation of membrane potential”. Also, the chronological lifespan result in series [4] (SQR-deficient yeast) is “no effect”; in series [4] (WT yeast) it was “extended the lifespan”.
As to `S` [NaHS, sodium hydrosulfide], the oxygen consumption entry in series [5] is recorded as “induced a small oxygen consumption only in WT mitochondria”. The “membrane potential response to succinate, malate, and glutamate and to TMPD with ascorbate” value in series [3] (3 μM NaHS, isolated mitochondria) was “retained the membrane potential response”. Also, in series [3] (isolated mitochondria, data not shown), the “concentration at which the membrane potential response was halted” value was “more than 30 μM”. Further, in series [3], the “membrane potential of isolated mitochondria” value was “generated the membrane potential in an SQR-dependent manner”. The mitochondrial membrane potential entry in the series with WT and Sqrdl^ΔN/ΔN MEFs (setting [6]) was “elevation of membrane potential”. Further, the values for the chronological lifespan result in series [4] (SQR-deficient yeast) and in series [4] (WT yeast) were “no effect” and “extended the lifespan”, respectively.
In the case of `COc1[nH]c(=O)c(C(=O)[C@@H](C)C[C@H](C)[C@@H](Cl)CCl)c(O)c1OC` [atpenin A5], the “effect on CATR-induced increase in membrane potential” value with WT and Sqrdl^ΔN/ΔN MEFs (WT MEFs) is “not significantly affected”.
With `N[C@@H](CSSC[C@H](N)C(=O)O)C(=O)O` [cystine], the mitochondrial membrane potential entry with WT and Sqrdl^ΔN/ΔN MEFs (setting [6]) was “elevation of membrane potential”.
In the case of `C=C(C)[C@H]1Cc2c(ccc3c2O[C@@H]2COc4cc(OC)c(OC)cc4[C@@H]2C3=O)O1` [rotenone], the “effect on CATR-induced increase in membrane potential” value in the series with WT and Sqrdl^ΔN/ΔN MEFs (WT MEFs) was “not significantly affected”.
On the same count and under the same terms, the same measure for antimycin A: “reduced”.
